Data as given in patent US8227618B2, “Amine-derivatives having NPY Y5 receptor antagonistic activity and the uses thereof” (Shionogi & Co., Ltd., priority 2009, dated 2012).

Legend:
mouse NPY Y5 receptor = biological target: T1, mouse NPY Y5 receptor (Mus musculus, UniProt O70342); experiment: Affinity for mouse NPY Y5 receptor ([125I] peptide YY binding, CHO cell membranes); conditions: CHO membranes expressing mouse NPY Y5 receptor, [125I] peptide YY 60 pM
T1 construct: expressed in transfected cells
T1 sequence (O70342 1-466): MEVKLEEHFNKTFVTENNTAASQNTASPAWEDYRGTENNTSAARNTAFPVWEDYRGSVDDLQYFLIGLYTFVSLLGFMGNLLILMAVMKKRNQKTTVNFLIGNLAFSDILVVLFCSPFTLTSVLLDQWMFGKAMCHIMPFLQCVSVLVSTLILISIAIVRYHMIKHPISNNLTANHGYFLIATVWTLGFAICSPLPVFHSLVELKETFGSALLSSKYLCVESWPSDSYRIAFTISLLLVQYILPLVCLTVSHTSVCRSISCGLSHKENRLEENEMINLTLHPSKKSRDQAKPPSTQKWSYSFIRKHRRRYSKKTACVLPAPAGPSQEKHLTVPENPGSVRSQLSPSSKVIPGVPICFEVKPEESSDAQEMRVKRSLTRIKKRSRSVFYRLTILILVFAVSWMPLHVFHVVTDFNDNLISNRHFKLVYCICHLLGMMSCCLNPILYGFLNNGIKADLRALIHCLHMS
Description: cDNA sequence encoding a mouse NPY Y5 receptor (Biochim. Biophys. Acta 1328:83-89, 1997) was cloned in a vector (pME18S, Takebe et al. Mol. Cell. Biol. 8, 466-472). The obtained expression vector was transfected into CHO cells as a host by using Lipofect AMINE reagent (Trademark, Gico BRL Co., Ltd.) according to the instruction manual. The cells that stably express mouse NPY Y5 receptor were obtained.
The membranes prepared from the CHO cells expressing mouse NPY Y5 receptor, the compound of this invention and 30,000 cpm [^125I] peptide YY (60 pM of final concentration: Amersham) were incubated in the assay buffer (20 mM HEPES-Hanks buffer containing 0.1% bovine serum albumin, pH 7.4) at 25° C. for 2 hours, and then the membrane was filtered from the mixture through a glassfilter (GF/C) presoaked with 1% polyethyleneimine. After washing with 50 mM Tris-HCl buffer (pH 7.4), radioactivity retained on the filters was quantified with a gamma counter.
Nonspecific binding was defined as the amount of radioactivity bound to the membranes after incubation in the presence of 200 nM of peptide YY. The 50% inhibitory concentration of the test compound against the specific peptide YY binding (IC50 value) was calculated (Inui, A. et al. Endocrinology 131, 2090-2096 (1992)).

NPY Y5 receptor = biological target: T2, NPY Y5 receptor (Mus musculus, UniProt O70342); experiment: Inhibition of Y5 agonist-induced food intake in mice; format: in vivo, C57BL/6J mice; conditions: 4 hours after dosing
T2 construct: from tissue; host or cells: brain of living male C57BL/6J mice
T2 sequence (O70342 1-466): T1 sequence (O70342 1-466)
Protocol: Under diethylether anesthesia the skull of male C57BL/6J mice (12-14 week old, 25-30 g) was exposed by making an incision about 1-cm long from external occipital crest to nasal dorsum, and then drilled in the 1-mm lateral position to the left following 1-mm posterior from bregma. After recovery from anesthesia mice were dosed with either 0.5% hydroxypropylmethyl cellulose solution (vehicle, Shin-Etsu Chemical Co., Ltd) or the compounds of this invention suspended in the 0.5% hydroxypropylmethyl cellulose solution. At one hour after the treatment, each animal received saline or a NPY Y5 receptor specific agonist, [cPP^1-7, NPY^19-23, Ala^31, Aib^32, Gln^34]-hPancreatic Polypeptide (0.1 nmol/1.5 μL saline/mouse) through the skull opening using a canula. Residual food was measured at 2 and 4 hours after the treatment. The inhibition ratio of Y5 agonist-induced food intake by the compounds was calculated as follows; inhibition ratio (%)=[1−(food intake (g) by the compound treated and Y5 agonist received mice−food intake (g) by the vehicle treated and saline received mice)/(food intake (g) by the vehicle treated and Y5 agonist received mice−food intake (g) by the vehicle treated and saline received mice)]×100.

P-gp = biological target: T3, P-gp (Mus musculus, UniProt P21447); experiment: Potential for drug-drug interactions through P-gp in vivo (Kp with/without cyclosporin A); conditions: mice, Kp with versus without cyclosporin A (20 mg/kg)
T3 construct: effectively excreted through P-gp from the brain to vessels; from tissue; host or cells: brain / blood-brain barrier of living C57BL/6J mice
T3 sequence (P21447 whole entry): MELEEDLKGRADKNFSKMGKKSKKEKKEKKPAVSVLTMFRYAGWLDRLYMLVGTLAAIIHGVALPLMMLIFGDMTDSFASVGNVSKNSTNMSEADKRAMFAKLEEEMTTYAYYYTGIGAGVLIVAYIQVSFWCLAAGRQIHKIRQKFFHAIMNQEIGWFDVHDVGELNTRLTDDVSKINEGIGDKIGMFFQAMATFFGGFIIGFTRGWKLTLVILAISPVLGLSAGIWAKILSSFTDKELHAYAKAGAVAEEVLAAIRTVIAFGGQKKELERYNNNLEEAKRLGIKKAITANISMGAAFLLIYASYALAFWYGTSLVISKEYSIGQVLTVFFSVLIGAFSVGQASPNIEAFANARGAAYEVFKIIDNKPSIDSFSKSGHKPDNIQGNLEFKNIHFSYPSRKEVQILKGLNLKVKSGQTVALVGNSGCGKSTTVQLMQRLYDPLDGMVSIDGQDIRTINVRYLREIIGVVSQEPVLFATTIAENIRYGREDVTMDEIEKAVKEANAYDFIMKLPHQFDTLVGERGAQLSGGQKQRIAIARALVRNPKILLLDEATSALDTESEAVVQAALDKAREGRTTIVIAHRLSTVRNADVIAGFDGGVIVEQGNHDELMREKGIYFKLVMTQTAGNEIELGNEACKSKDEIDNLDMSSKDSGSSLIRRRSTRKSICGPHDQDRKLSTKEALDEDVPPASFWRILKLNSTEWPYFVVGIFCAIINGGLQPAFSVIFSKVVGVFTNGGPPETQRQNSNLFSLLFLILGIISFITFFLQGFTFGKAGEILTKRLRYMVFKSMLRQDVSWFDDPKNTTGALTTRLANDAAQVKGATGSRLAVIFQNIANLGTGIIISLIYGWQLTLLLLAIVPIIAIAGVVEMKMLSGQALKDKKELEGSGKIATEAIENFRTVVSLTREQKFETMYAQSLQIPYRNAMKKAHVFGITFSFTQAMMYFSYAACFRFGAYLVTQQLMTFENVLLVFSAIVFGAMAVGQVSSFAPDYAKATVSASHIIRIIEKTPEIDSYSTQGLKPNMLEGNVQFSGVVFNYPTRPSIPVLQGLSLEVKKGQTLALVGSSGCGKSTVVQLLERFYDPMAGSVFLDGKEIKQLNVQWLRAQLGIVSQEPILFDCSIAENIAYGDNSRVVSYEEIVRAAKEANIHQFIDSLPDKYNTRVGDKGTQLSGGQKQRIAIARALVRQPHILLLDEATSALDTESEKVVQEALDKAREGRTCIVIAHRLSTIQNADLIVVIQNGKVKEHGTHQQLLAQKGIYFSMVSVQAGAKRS
Protocol: To examine the potential for drug-drug interactions through P-gp in vivo, the Kp values of compounds of this invention with (KpCSA) or without (KpCont.) cyclosporin A (20 mg/kg), a P-gp inhibitor, were calculated. The KpCSA value of Compound (I-72) was 1.14, and the calculated KpCSA KpCont. ratio was 0.9.
On the other hand the potential for drug-drug interactions through P-pg of amide compound B which has similar structure of Compound (1-72) was also examined in mice. The KpCont. and KpCSA were 0.04 and 0.84, respectively.

[1] = Suppression of body weight gain in high-fat diet-induced obese mice; format: in vivo, C57BL/6J mice; conditions: 6 mg/kg b.i.d. for 3 weeks, versus vehicle
Protocol: Prior to administration of the compounds of this invention, male C57BL/6J mice were given a high-fat diet to induce obese. The high-fat diet-induced obese mice (13-14 week old, body weight 28-33 g) were dosed with 0.5% hydroxypropylmethyl cellulose solution (vehicle, Shin-Etsu Chemical Co., Ltd) or the compounds of this invention suspended in the 0.5% hydroxypropylmethyl cellulose solution twice a day (b.i.d.) for 3 weeks with the same diet. The changes in body weight were monitored daily.

[2] = rows without asterisk (6 mg/kg per text)

SMILES | IC50 (mouse NPY Y5 receptor) [nM] | Inhibition ratio of Y5 agonist-induced food intake (NPY Y5 receptor; [2]) [%] | also measured
CC(C)S(=O)(=O)NC[C@H]1CC[C@H](Nc2ccc(OC3CCCC3)nn2)CC1 [Ij-52] | 0.99 | – | –
CCS(=O)(=O)NC[C@H]1CC[C@H](Nc2nc3ccccc3o2)CC1 [Ij-150] | 4.66 | 25.3 | –
CC(C)(C)S(=O)(=O)NC[C@H]1CC[C@H](Nc2nc3ccc(C(F)(F)F)cc3s2)CC1 [Ij-66] | 0.39 | – | –
C[C@@H]1CN(c2ccc(NC[C@H]3CC[C@H](NS(=O)(=O)C(C)(C)C)CC3)cc2)C[C@H](C)O1 [Compound I-72] | – | – | KpCSA/KpCont. ratio (P-gp): 0.9
CC(C)S(=O)(=O)NC[C@H]1CC[C@H](Nc2nc3cccc(F)c3s2)CC1 [Ij-153] | 0.12 | 73.0 | –
CCCn1c(=O)oc2cc(NC[C@H]3CC[C@H](NS(=O)(=O)CC)CC3)ccc21 [Ii-16] | 1.2 | – | –
CC(C)S(=O)(=O)NC[C@H]1CC[C@H](Nc2ccc(C(F)(F)F)cn2)CC1 [Ij-1] | 0.7 | – | –
CCC(C)S(=O)(=O)NC[C@H]1CC[C@H](Nc2nc3ccc(F)cc3o2)CC1 (stereo partly shown) [Ij-161] | 0.69 | – | Inhibition ratio of Y5 agonist-induced food intake (NPY Y5 receptor; *Dose: 1.5 mg/kg): 15.8%*
CC(C)(C)S(=O)(=O)NC[C@H]1CC[C@H](Nc2nc3cc(F)ccc3o2)CC1 [Ij-158] | 0.85 | 70.5 | –
CCS(=O)(=O)NC[C@H]1CC[C@H](Nc2ccn(-c3ccccc3F)n2)CC1 [Ij-112] | – | – | Body weight gain [1]: suppresses Body Weight Gain
CC(C)S(=O)(=O)NC[C@H]1CC[C@H](Nc2nc3cc(F)ccc3s2)CC1 [Ij-151] | 0.12 | – | Inhibition ratio of Y5 agonist-induced food intake (NPY Y5 receptor; *Dose: 1.5 mg/kg): 78.4%*
CC(C)S(=O)(=O)NC[C@H]1CC[C@H](Nc2nc3cc(F)ccc3o2)CC1 [Ij-155] | 0.88 | – | Inhibition ratio of Y5 agonist-induced food intake (NPY Y5 receptor; *Dose: 1.5 mg/kg): 56.1%*
CC(C)S(=O)(=O)N[C@H]1CC[C@H](CNc2cc(F)cc(N3CCOCC3)c2)CC1 [Ii-55] | – | 64.3 | –
CCS(=O)(=O)NC[C@H]1CC[C@H](Nc2ccc(-c3ccccc3)cn2)CC1 [Ij-4] | – | 88.2 | –
CC(C)(C)S(=O)(=O)NC[C@H]1CC[C@H](Nc2nc3ccc(F)cc3o2)CC1 [Ij-159] | 0.6 | 83.2 | –
CCS(=O)(=O)N[C@H]1CC[C@H](CNc2ccc(S(=O)(=O)c3ccc(F)cc3)cc2)CC1 [Ii-34] | 11 | – | –
CC(C)S(=O)(=O)NC[C@H]1CC[C@H](Nc2nc3ccc(F)cc3s2)CC1 [Ij-152] | 0.35 | – | Inhibition ratio of Y5 agonist-induced food intake (NPY Y5 receptor; *Dose: 1.5 mg/kg): 62.6%*
CC(C)(C)S(=O)(=O)NC[C@H]1CC[C@H](Nc2ccn(-c3ccccc3F)n2)CC1 [Ij-110] | – | 90.3 | –
CCS(=O)(=O)NC[C@H]1CC[C@H](Nc2nc3ccccc3s2)CC1 [Ij-149] | 0.92 | 62.6 | –
CC(C)S(=O)(=O)NC[C@H]1CC[C@H](Nc2nc3cc(Cl)ccc3s2)CC1 [Ij-154] | 0.17 | 81.3 | –
Cn1c(=O)oc2cc(NC[C@H]3CC[C@H](NS(=O)(=O)C(C)(C)C)CC3)cc(F)c21 [Ii-45] | – | 76.2 | Body weight gain [1]: suppresses Body Weight Gain
CC(C)S(=O)(=O)NC[C@H]1CC[C@H](Nc2ccn(-c3ccccc3Cl)n2)CC1 [Ij-157] | 0.16 | – | –
CC(C)S(=O)(=O)NC[C@H]1CC[C@H](Nc2nc3ccc(F)cc3o2)CC1 [Ij-156] | 0.68 | – | Inhibition ratio of Y5 agonist-induced food intake (NPY Y5 receptor; **Dose: 12.5 mg/kg): 90.4%**
CC1CC(C)CN(c2cccc(NC[C@H]3CC[C@H](NS(=O)(=O)C(C)(C)C)CC3)c2)C1 (stereo partly shown) [Ii-1] | 0.1 | – | –
CC(C)(C)S(=O)(=O)NC[C@H]1CC[C@H](Nc2ccc3ccccc3n2)CC1 [Ij-59] | 2.5 | – | –
C[C@@H]1CN(c2ccc(NC(=O)[C@H]3CC[C@H](NS(=O)(=O)C(C)(C)C)CC3)cc2)C[C@H](C)O1 [B, reference compound] | – | – | KpCSA/KpCont. ratio (P-gp): 20.5
CCC(C)S(=O)(=O)NC[C@H]1CC[C@H](Nc2nc3cc(F)ccc3o2)CC1 (stereo partly shown) [Ij-160] | 0.55 | – | Inhibition ratio of Y5 agonist-induced food intake (NPY Y5 receptor; *Dose: 1.5 mg/kg): 36.6%*
